Source: patent US7125671B2, “Nucleic acid amplification with terminal-phosphate labeled nucleotides” (GE Healthcare Bio-Sciences Corp., priority 2003, dated 2006)

What was measured:
[1] = system: pUCp53 DNA; assay: PCR with additional nucleotides (FIG. 2); format: biochemical; settings: labeled nucleotide replaces the normal dNTP; 0.2 mM MnCl2; primers P53SNP22C-51F and P53SNP22G131R
Experimental: (§1) Polymerase chain reaction (PCR) mixtures (20 μl) contained 20 mM Tris-HCL (pH 8.75), 10 mM KCL, 10 mM (NH4)2SO4, 2 mM MgSO4, 1 mg/ml bovine serum albumin and 0.1% (v/v) Triton X-100. The final nucleotide concentrations were 20 μM each, and 2.5 units of the DNA polymerase were used for each reaction. The initial template DNA (1–5 ng) was either pUC18 or pUCp53 (Amersham Biosciences). The initial amount of primer was 2 μmol each, and 2.5 units of the indicated DNA polymerase was used. Reactions were carried out for 15 thermal cycles of 90° C., 30 sec.; 55° C., 60 sec.; and 72° C., 300 sec. Most PCR reactions also included MnCl2 at a final concentration of 0.08–0.2 mM. Reaction products were loaded onto 1.6% agarose gels. The gels were stained with SYBR Gold (Molecular Probes) according to the manufacturers' instructions and scanned at 532 nm using a Typhoon fluorescence scanner (Amersham Biosciences). Gel size markers were a 100 bp ladder (Amersham Biosciences).
(§2) For both figures, the amplification reaction loaded in lane 1 was performed with normal dNTPs and without MnCl2. For the lanes marked 2, the dTTP was replaced by dT4P-DDAO and the reactions contained 0.2 mM MnCl2. For the lanes marked 3, the dGTP was replaced by dG4P-DDAO, and for the lanes marked 4, the dGTP was replaced by dG4P-MeCoumarin again with 0.2 mM MnCl2.

[2] = system: pUC18 DNA; assay: PCR with additional nucleotides, template and primers (FIG. 3); format: biochemical; settings: labeled nucleotide replaces the normal dNTP; 0.2 mM MnCl2; −21 Forward and −28 Reverse primers
Experimental: as §1, §2

[3] = system: Tba exo-DNA polymerase; assay: PCR amplification of pUCp53 target with terminal-phosphate labeled nucleotide, gel and fluorescence detection; format: biochemical, Thermococcus barosii
Experimental: as §1
(§3) The DNA polymerases used for these experiments included Taq DNA polymerase, Thermo Sequenase DNA polymerase (Amersham Biosciences), Tba exo-DNA polymerase (from Thermococcus barosii, U.S. Pat. No. 5,602,011 with D141A and E143A amino acid substitutions U.S. Pat. No. 5,882,904), Pfu DNA polymerase (Strategene), KOD XL DNA polymerase (Novagen) and Deep Vent DNA polymerase (New England BioLabs).
For this experiment, either Taq DNA polymerase (lanes 1–3, 12), Thermo Sequenase (Amersham Biosciences) DNA polymerase (lanes 7–9, 11) or Tba exo-DNA polymerase (lanes 4–6, 10) were used. The MnCl2 concentration was 0 mM for the reactions resolved in lanes 1, 4, 7 and 10–12; 0.2 mM in lanes 2, 5, and 8; 0.4 mM in lanes 3, 6 and 9. For all samples, the template DNA was pUCp53 and the primers were P53SNP22C-51F and P53SNP22G131R. […]
(§4) Then the fluorescence was determined using a FarCYte fluorescence plate reader (Amersham Biosciences) using 650 nm excitation and 670 nm emission. […] The reaction product of Tba exo-DNA polymerase gave a reading of 31,000 fluorescence units.

[4] = biological target: Taq DNA polymerase (Thermus aquaticus, UniProt P19821); assay: as above; format: biochemical; settings: lane 2 of FIG. 1, 0.2 mM MnCl2
Experimental: Polymerase chain reaction (PCR) mixtures (20 μl) contained 20 mM Tris-HCL (pH 8.75), 10 mM KCL, 10 mM (NH4)2SO4, 2 mM MgSO4, 1 mg/ml bovine serum albumin and 0.1% (v/v) Triton X-100. The final nucleotide concentrations were 20 μM each, and 2.5 units of the DNA polymerase were used for each reaction. The initial template DNA (1–5 ng) was either pUC18 or pUCp53 (Amersham Biosciences). The initial amount of primer was 2 μmol each, and 2.5 units of the indicated DNA polymerase was used. Reactions were carried out for 15 thermal cycles of 90° C., 30 sec.; 55° C., 60 sec.; and 72° C., 300 sec. Most PCR reactions also included MnCl2 at a final concentration of 0.08–0.2 mM. Reaction products were loaded onto 1.6% agarose gels. The gels were stained with SYBR Gold (Molecular Probes) according to the manufacturers' instructions and scanned at 532 nm using a Typhoon fluorescence scanner (Amersham Biosciences). Gel size markers were a 100 bp ladder (Amersham Biosciences). […]
as §4

[5] = system: KOD XL DNA polymerase; assay: PCR amplification of pUCp53 target with terminal-phosphate labeled nucleotide; format: biochemical; settings: same conditions as FIG. 1, DDAO-dT4P replaced dTTP
Experimental: as §1
as §3, with “BioLabs). […]” for “BioLabs).”

[6] = biological target: T1, Pfu DNA polymerase (Pyrococcus furiosus, UniProt P61875); assay: as above; format: biochemical; settings: same conditions as FIG. 1, DDAO-dT4P replaced dTTP
T1 construct: purchased Strategene (so in the source); Stratagene)
T1 sequence (P61875 1-775): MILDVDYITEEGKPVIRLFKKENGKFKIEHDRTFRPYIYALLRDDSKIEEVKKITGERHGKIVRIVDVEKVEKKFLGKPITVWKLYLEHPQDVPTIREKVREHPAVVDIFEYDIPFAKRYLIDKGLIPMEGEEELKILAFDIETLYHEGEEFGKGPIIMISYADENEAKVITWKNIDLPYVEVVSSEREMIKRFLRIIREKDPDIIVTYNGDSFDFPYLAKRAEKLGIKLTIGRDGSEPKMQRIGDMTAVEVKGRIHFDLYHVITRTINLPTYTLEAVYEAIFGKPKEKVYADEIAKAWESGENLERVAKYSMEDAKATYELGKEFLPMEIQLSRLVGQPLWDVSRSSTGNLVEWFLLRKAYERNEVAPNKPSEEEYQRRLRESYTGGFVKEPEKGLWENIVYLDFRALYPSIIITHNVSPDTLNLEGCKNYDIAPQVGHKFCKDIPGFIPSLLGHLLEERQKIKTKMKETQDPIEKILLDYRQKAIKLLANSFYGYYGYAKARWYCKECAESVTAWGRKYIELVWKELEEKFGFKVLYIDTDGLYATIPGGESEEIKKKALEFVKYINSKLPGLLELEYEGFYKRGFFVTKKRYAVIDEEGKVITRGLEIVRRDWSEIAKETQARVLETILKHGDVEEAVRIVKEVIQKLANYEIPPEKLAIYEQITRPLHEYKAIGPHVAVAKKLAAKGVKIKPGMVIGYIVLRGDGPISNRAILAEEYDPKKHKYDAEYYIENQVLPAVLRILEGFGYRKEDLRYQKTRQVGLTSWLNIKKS
Experimental: as §1
as §3, with “BioLabs). […]” for “BioLabs).”

[7] = biological target: T2, Phi29 DNA polymerase (Bacillus phage phi29, UniProt P03680); assay: Rolling circle amplification of salmon sperm chromosomal DNA with terminal-phosphate labeled/blocked nucleoside polyphosphates; format: biochemical; settings: 50 μm dT4P-DDAO with dA4P-Me, dG4P-Me, dC4P-Me, BAP, 30° C.
T2 sequence (P03680 1-575): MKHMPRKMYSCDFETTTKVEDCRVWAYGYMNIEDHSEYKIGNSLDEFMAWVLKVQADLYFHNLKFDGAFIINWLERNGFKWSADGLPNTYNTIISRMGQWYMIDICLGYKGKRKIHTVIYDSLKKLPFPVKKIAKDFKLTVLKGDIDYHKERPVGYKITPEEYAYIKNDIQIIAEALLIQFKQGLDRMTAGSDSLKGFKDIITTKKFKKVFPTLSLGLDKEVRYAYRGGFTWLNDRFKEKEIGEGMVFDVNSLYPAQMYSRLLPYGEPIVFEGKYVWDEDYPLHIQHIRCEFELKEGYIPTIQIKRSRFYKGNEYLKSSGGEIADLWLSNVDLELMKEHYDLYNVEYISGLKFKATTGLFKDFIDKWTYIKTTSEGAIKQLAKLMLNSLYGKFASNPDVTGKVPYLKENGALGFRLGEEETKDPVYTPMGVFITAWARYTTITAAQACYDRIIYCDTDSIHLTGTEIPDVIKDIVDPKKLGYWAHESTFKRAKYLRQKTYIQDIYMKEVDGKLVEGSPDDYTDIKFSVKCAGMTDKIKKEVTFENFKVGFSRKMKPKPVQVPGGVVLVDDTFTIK
Experimental: Varying amounts of denatured salmon sperm chromosomal DNA was taken in 25 mM Tris: borate buffer, pH 8.0, containing 5 mM ammonium sulfate, 75 mM NaCl, 5 mM MgCl2, 1 mM MnSO4, 0.01% Tween-20, 400 ng Phi29 DNA polymerase, 40 μm nuclease resistant random hexamers, 0.03 units of BAP and 50 μm each of dA4P-Me, dG4P-Me, dC4P-Me and dT4P-DDAO. Reactions were incubated at 30° C. in a Tecan fluorescent plate reader and were read every five minutes at excitation and emission wavelengths optimized for DDAO. Raw fluorescence counts are plotted as a function of time.

[8] = Non-enzymatic hydrolysis of terminal-phosphate labeled nucleoside polyphosphate on thermal cycling, effect of glycerol; format: physicochemical; settings: 5% glycerol; high temperatures
Experimental: Seventy μl samples containing 50 mM Hepes, pH 8.0, 5 mM MgCl2, 0.5 mM MnCl2, 0.01% Tween-20, 1 μm ddT4P-EtFl, 100 nM primer/template, 0.0036 units/μl SAP with or without 5% glycerol were cycled as follows: 95° C., 30 sec and 50° C., 3 min, repeat 10 times. Amount of free dye formed was checked in a fluorimeter.

[9] = Non-enzymatic hydrolysis of dT4P-DDAO in the presence of MnCl2, effect of other salts (FIG. 5); settings: 10 or 25 mM salt; 0.5 mM MnCl2; 25 mM Hepes pH 8.1; 95° C. for 60 minutes
Experimental: Twenty μl of 25 mM Hepes, pH 8.1, containing 0.5 mM MnCl2, 1 μm dT4P-DDAO and 10 or 25 mM inorganic or organic salt (see FIG. 5) was heated at 95° C. for 60 minutes. 4 μl of each sample was treated with BAP as described above and read on Tecan ultra plate reader. An unheated sample with MnCl2 (water lane) and a heated sample without Hepes and MnCl2 were used as controls. Fluorescence counts were converted into % degradation as described above.

[10] = system: T. ba polymerase; assay: PCR amplification with terminal-phosphate labeled nucleoside polyphosphates in the presence of stabilizing additives (FIG. 6); format: biochemical, Thermococcus barosii; settings: 10–25 mM salt; dA4P-Me, dT4P-Me, dC4P-Me, dG4P-FlEt; 0.25 mM MnCl2; M13 DNA; 35 cycles
Experimental: Polymerase chain reaction (PCR) mixtures (20 μl) contained 25 mM Hepes (pH 8.1), 10 mM KCl, 2 mM MgSO4, 0.25 mM MnCl2, 1 mg/ml bovine serum albumin, 0.01% (v/v) Tween-20 and 10–25 mM salt as shown in FIG. 6. Each sample also contained 20 μm each of dA4P-Me, dT4P-Me, dC4P-Me, 200 μm dG4P-FlEt, 0.006 units/μl BAP, 2 units of T. ba polymerase, 0.1 μm −40 M13 forward primer, 0.1 μm −28 M13 reverse primer and 0.2 ng M13 DNA. In addition to the terminal-phosphate labeled nucleotide, terminal methyl-blocked dNTP's were used instead of normal dNTP's to prevent degradation by BAP (phosphatase). Latter is required for signal generation from dye-polyphosphate after the nucleotide is incorporated into DNA by polymerase. Reactions were carried out for 35 thermal cycles of 90° C., 30 sec.; 55° C., 30 sec.; and 65° C., 300 sec. Reaction products were loaded onto 1.6% agarose gels. The gels were stained with SYBR Gold (Molecular Probes) according to the manufacturers' instructions and scanned at 532 nm using a Typhoon fluorescence scanner (Amersham Biosciences). Gel size markers were a 100 bp ladder (Amersham Biosciences).

Taq DNA polymerase, sequence (P19821 whole entry): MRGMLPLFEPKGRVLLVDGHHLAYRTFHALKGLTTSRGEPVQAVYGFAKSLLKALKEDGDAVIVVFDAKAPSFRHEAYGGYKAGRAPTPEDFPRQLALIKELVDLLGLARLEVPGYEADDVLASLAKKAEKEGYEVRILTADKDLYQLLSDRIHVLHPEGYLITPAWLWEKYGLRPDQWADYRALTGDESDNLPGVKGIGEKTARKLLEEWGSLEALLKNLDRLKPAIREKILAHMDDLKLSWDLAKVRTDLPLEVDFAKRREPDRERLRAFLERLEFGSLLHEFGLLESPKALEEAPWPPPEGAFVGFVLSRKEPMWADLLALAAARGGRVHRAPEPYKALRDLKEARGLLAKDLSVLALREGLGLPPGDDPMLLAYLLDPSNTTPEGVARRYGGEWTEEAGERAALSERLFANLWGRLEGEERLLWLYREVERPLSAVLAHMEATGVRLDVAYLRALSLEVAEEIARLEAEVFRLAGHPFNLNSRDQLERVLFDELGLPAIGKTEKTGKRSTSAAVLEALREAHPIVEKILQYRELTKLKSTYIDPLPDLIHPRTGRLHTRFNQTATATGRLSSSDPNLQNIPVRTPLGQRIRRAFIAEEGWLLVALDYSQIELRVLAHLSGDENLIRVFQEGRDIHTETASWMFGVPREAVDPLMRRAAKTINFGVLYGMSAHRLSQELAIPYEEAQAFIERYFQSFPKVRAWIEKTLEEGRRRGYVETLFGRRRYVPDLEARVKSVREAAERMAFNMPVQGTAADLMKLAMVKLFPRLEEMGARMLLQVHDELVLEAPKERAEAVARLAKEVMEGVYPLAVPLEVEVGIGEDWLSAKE

CC1(C)C2=C(Cl)C(=O)C(Cl)=CC2=Nc2ccc(OP(=O)(O)OP(=O)(O)OP(=O)(O)OP(=O)(O)OC[C@H]3OC(n4cnc5c(=O)[nH]c(N)nc54)CC3O)cc21 (stereo partly shown) [dG4P-DDAO, δ-9H(1,3-dichloro-9,9-dimethylacridin-2-one-7-yl)-deoxyguanosine-5′-tetraphosphate]
PCR amplification product on gel [1]: successfully produced product of the expected size | PCR amplification product on gel [2]: successfully produced product of the expected size

Cc1cc(=O)oc2cc(OP(=O)(O)OP(=O)(O)OP(=O)(O)OP(=O)(O)OC[C@H]3O[C@@H](n4cnc5c(=O)[nH]c(N)nc54)C[C@@H]3O)ccc12 [dG4P-MeCoumarin, 2′-Deoxyguanosine-5′-(δ-7-(4-methylumbelliferone)) tetraphosphate]
PCR amplification product on gel [1]: successfully produced product of the expected size | PCR amplification product on gel [2]: successfully produced product of the expected size

Cc1cn([C@H]2CC(O)[C@@H](COP(=O)(O)OP(=O)(O)OP(=O)(O)OP(=O)(O)Oc3ccc4c(c3)C(C)(C)C3=C(Cl)C(=O)C(Cl)=CC3=N4)O2)c(=O)[nH]c1=O (stereo partly shown) [dT4P-DDAO, δ-9H(1,3-dichloro-9,9-dimethylacridin-2-one-7-yl)-deoxythymidine-5′-tetraphosphate]
increase of PCR yield in the presence of MnCl2 ([3]; 0.2–0.4 mM MnCl2 versus 0 mM, DDAO-dT4P replaced dTTP): at least 5 fold | PCR product on agarose gel ([3]; DDAO-dT4P replaced dTTP, pUCp53 template, 15 thermal cycles, FIG. 1): significant amounts of PCR product were made | fluorescence reading of PCR reaction product after shrimp alkaline phosphatase ([3]; lane 5 of FIG. 1, 0.2 mM MnCl2, 650 nm excitation, 670 nm emission): 31,000 fluorescence units | PCR product ([4]; DDAO-dT4P replaced dTTP): little or no detectable PCR product | fluorescence reading of PCR reaction product after shrimp alkaline phosphatase ([4]; 650 nm excitation, 670 nm emission): 5500 fluorescence units | PCR product [5]: PCR product is made | PCR product [6]: PCR product is made | PCR amplification product on gel [1]: successfully produced product of the expected size | PCR amplification product on gel [2]: successfully produced product of the expected size | rate of product formation (slope 20–40 minutes) versus amount of input DNA ([7]; FIG. 10): linear correlation | fluorescence signal ([7]; absence of input DNA, FIG. 9): no signal is produced

OCC(O)CO [glycerol]
effect of additive on degradation of ddT4P-EtFl caused by manganese [8]: reduces the amount of degradation caused by manganese

O=C(O)CP(=O)(O)O [phosphonoacetate]
stabilization of dT4P-DDAO (% degradation) [9]: stabilize the nucleotide | PCR product formation in the presence of the additive [10]: No product formed

CCCS(=O)(=O)O [propane sulfonate]
stabilization of dT4P-DDAO (% degradation) [9]: minimal

[Na+].[Na+].[O]=[Mo](=[O])([O-])[O-] [sodium molybdate]
PCR product formation in the presence of the additive [10]: PCR product was separated

[Na+].[Na+].[O]=[W](=[O])([O-])[O-] [sodium tungstate]
PCR product formation in the presence of the additive [10]: PCR product was separated

sodium vanadate
PCR product formation in the presence of the additive [10]: No product formed
